Activity calls are given as the source filed them.
Key:
[1] = target: Dual specificity protein phosphatase 3 (Homo sapiens, UniProt P51452); assay: VHR1 phosphatase inhibitors, primary screen, biochemical, absorbance, uHTS (AID 1654)
[2] = target: Photoreceptor-specific nuclear receptor (Homo sapiens, UniProt Q9Y5X4); type: functional;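 note: potency for compounds that break the NR2E3 corepressor complex and count as activators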
[3] = A549 cell cytotoxicity, dose response, cytotoxicity control, plate reader, cherry-pick, antagonist series (AID 743412); type: functional, cell-based
[4] = target: T1, 1-phosphatidylinositol 4,5-bisphosphate phosphodiesterase beta-3 (Homo sapiens, UniProt Q01970); assay: Fluorescence-based biochemical high throughput dose response assay to identify inhibitors of phospholipase C isozymes (PLC-B3).
T1 sequence (Q01970 whole entry): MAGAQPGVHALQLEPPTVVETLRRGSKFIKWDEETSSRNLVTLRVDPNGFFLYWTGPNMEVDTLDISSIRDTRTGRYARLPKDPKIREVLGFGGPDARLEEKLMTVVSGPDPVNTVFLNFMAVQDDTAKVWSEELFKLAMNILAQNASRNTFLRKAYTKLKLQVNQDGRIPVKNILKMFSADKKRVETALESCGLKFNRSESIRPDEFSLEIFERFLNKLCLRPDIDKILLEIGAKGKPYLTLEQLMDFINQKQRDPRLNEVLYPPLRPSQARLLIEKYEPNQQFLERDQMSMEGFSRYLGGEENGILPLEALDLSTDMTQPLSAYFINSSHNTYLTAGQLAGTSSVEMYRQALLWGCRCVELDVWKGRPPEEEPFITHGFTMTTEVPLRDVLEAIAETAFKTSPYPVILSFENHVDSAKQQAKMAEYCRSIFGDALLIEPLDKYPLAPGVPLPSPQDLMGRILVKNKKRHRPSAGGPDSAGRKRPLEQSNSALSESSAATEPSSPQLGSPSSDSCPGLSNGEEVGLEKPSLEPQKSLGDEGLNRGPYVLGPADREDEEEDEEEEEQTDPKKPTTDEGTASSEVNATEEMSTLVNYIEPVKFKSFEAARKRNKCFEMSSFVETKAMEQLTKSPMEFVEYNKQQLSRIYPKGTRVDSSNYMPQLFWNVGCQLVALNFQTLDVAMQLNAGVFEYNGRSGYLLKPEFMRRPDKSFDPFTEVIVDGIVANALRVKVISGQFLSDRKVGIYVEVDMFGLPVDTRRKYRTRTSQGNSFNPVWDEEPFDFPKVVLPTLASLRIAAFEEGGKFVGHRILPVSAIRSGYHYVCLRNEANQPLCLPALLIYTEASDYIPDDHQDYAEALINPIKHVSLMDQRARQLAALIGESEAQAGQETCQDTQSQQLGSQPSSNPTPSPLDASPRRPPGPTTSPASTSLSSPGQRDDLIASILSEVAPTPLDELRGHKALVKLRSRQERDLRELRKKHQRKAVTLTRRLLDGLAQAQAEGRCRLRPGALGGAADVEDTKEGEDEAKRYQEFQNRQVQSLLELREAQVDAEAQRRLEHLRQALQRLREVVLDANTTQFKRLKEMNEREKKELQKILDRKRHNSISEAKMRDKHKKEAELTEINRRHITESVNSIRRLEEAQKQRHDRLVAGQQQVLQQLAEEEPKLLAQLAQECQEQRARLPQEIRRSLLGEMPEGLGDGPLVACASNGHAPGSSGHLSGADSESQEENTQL

BJ = assay: cells; type: functional, cell-based; details: Homo sapiens
Streptococcus = assay: Group A Streptococcus viability loss, dose response, counter-screen for streptokinase expression inhibitor project, luminescence, BacTiterGlo (AID 1915); type: functional, organism-based;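 note: potency for reduction of bacterial viability or growth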
Galanin receptor type 3 = target: T2, Galanin receptor type 3 (Homo sapiens, UniProt O60755); assay: Fluorescence-based cell-based primary high throughput dose response assay to identify antagonists of the Galanin Receptor 3 (GalR3).; type: functional
T2 sequence (O60755 whole entry): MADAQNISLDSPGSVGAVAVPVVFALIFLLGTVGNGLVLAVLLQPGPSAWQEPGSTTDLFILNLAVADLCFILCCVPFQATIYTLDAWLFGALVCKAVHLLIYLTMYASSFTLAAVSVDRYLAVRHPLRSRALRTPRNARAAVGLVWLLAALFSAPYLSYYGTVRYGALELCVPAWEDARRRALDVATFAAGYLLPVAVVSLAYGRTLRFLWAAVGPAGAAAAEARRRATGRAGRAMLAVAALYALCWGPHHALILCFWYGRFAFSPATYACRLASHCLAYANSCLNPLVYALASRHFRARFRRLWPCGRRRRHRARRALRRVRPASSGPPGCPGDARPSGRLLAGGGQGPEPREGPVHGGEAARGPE

[5] = inhibitors of clade B AD8 Env fusion, dose response, cell-based, cherry-pick (AID 652062); type: functional;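 note: luciferase signal from cell-cell fusion driven by HIV-1 clade B AD8 Env; potency is for inhibitors of fusion seen as a drop in luminescence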

Sequence of Photoreceptor-specific nuclear receptor (Q9Y5X4 whole entry): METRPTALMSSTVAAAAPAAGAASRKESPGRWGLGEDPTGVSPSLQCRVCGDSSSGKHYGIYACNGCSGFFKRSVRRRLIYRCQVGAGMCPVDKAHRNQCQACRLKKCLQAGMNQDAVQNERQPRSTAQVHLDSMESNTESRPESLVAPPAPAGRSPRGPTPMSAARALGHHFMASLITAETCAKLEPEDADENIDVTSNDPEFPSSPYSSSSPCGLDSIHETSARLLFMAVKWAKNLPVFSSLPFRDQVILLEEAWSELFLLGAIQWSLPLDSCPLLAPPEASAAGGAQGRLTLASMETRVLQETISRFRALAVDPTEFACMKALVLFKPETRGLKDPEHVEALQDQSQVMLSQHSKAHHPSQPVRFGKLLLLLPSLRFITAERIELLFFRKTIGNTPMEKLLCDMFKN
Sequence of Dual specificity protein phosphatase 3 (P51452 whole entry): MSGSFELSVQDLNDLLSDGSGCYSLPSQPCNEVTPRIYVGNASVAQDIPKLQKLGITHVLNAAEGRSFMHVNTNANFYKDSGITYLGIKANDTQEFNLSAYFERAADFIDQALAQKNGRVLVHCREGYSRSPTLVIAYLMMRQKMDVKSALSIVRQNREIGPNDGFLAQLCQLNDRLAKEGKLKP

| SMILES | IC50 [1] | IC50 [2] | AC50 [3] | IC50 [4] | EC50 (BJ) | EC50 (Streptococcus) | IC50 (Galanin receptor type 3) | AC50 [5] |
| --- | --- | --- | --- | --- | --- | --- | --- | --- |
| Cn1nc(-c2ccccn2)nc2c(=O)n(C)c(=O)nc1-2 | < 1.23 µM (inactive) | > 39.8 µM (not active) | 3.15 µM (active) | > 122 µM (inactive) |  |  |  |  |
| CCCCCCCCCCn1c2c(c(=N)c3c1CCC3)CCC2 |  |  |  |  | 2.46 µM (inconclusive) | 8.86 µM (active) | > 1.11 µM (active) | 0.726 µM (active) |
